How the values were obtained:
Cathepsin K = molecular target: T1, Cathepsin K (Homo sapiens, UniProt P43235); test: Inhibition of 10 uM Cbz-Phe-Arg-AMC binding to human cathepsin K by fluorescence assay
T1 sequence (P43235 whole entry): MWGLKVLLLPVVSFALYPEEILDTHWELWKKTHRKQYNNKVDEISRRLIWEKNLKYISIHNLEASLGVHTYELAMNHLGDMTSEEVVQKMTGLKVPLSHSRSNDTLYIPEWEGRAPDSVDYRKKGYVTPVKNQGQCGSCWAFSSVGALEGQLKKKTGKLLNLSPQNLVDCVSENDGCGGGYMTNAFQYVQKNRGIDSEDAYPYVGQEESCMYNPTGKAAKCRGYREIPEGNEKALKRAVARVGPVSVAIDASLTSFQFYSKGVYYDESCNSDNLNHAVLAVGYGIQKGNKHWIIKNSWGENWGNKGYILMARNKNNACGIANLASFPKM

[1] = molecular target: T2, Cathepsin K (Homo sapiens) (UniProt P43235); test: Percentage inhibition of 10 uM Cbz-Phe-Arg-AMC binding to human cathepsin K at 12.6 uM by fluorescence assay
T2 sequence (whole entry): T1 sequence (P43235 whole entry)

Homo sapiens [2] = organism: Homo sapiens; test: Ratio of inhibitory potency against cathepsins K and V using 2 uM Cbz-Phe-Arg-AMC in fluorescence assay
[3] = molecular target: Cathepsin (L and K) (Homo sapiens) (UniProt P43235+P07711); test: Ratio of inhibitory potency against cathepsins L and K using 5 uM Cbz-Phe-Arg-AMC in fluorescence assay; type: protein assay
Cathepsin (L and K) (Homo sapiens), sequence (P07711 whole entry, looked up, one chain of several): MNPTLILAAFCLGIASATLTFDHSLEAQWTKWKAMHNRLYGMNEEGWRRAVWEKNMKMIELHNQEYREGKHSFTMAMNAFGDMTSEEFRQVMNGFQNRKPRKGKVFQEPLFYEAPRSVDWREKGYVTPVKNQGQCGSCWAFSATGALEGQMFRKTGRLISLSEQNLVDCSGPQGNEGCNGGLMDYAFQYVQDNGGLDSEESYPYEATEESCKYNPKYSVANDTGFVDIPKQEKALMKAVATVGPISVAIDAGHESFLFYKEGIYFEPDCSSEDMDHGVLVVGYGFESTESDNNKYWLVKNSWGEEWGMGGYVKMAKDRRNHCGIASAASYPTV

Homo sapiens [4] = organism: Homo sapiens; test: Ratio of inhibitory potency against cathepsins K and B using 10 uM Cbz-Phe-Arg-AMC in fluorescence assay
Homo sapiens [5] = organism: Homo sapiens; test: Ratio of inhibitory potency against cathepsins K and S using 10 uM Cbz-Phe-Arg-AM in fluorescence assay

SMILES	IC50 (Cathepsin K) [µM]	inhibition [1] [%]	further results
CCCC[C@H](NC(=O)O[C@@H](C)CC1CCCCC1)C(=O)c1nccs1	3.1	–	–
CCCC[C@H](NC(=O)OC(C(C)C)C(C)C)C(=O)c1ccccc1	–	2	–
CCOC(=O)c1csc(C(=O)CNC(=O)[C@H](CC(C)C)NC(=O)OCc2ccccc2)n1	–	20	–
CCOC(=O)c1csc(C(=O)CNC(=O)O[C@@H](C)CC2CCCCC2)n1	–	0	–
CCCC[C@H](NC(=O)O[C@@H](C)CC1CCCCC1)C(=O)c1nc(-c2ccccc2)cs1	7.1	–	–
CCCC[C@H](NC(=O)O[C@@H](C)CC1CCCCC1)C(=O)c1nc(C)c(C(=O)OCC)s1	–	10	–
CCCC[C@H](NC(=O)O[C@@H](C)CC1CCCCC1)C(=O)c1nc(C(F)(F)F)cs1	13	–	–
CCCC[C@H](NC(=O)O[C@@H](C)CC1CCCCC1)C(=O)c1noc(C)n1	8.1	–	–
CCOC(=O)c1csc(C(=O)CNC(=O)OC(CC)Cc2ccccc2)n1 (stereo unspecified)	–	0	–
CCCOc1ccccc1C(=O)NCC(=O)c1nc(C(=O)OCC)cs1	> 13	–	–
CCCC[C@H](NC(=O)O[C@@H](C)CC1CCCCC1)C(=O)c1nnc(-c2ccccc2)o1	4	–	–
CCCC[C@H](NC(=O)OC(Cc1ccccc1)C(C)C)C(=O)c1nc(C(=O)OCC)cs1 (stereo partly specified)	–	28	–
CCCC[C@H](NC(=O)OC(C(C)C)C(C)C)C(=O)c1cccs1	1.9	–	–
CCCC[C@H](NC(=O)O[C@@H](C)CC1CCCCC1)C(=O)c1nc(C(=O)OCC)cs1	0.23	–	Ratio (Homo sapiens [2]): > 40; Ratio [3]: > 40; Ratio (Homo sapiens [4]): > 40; Ratio (Homo sapiens [5]): > 40
CCCC[C@H](NC(=O)OC(Cc1ccccc1)CC(C)C)C(=O)c1nc(C(=O)OCC)cs1 (stereo partly specified)	–	31	–
CCCC[C@H](NC(=O)[C@H](CC(C)C)NC(=O)OCc1ccccc1)C(=O)c1nc(C(=O)OCC)cs1	13	–	–
CCCC[C@H](NC(=O)OC(CC)Cc1ccccc1)C(=O)c1nc(C(=O)OCC)cs1 (stereo partly specified)	> 13	–	–

Reference: ChEMBL document CHEMBL1139588, “Ketoheterocycle-based inhibitors of cathepsin K: a novel entry into the synthesis of peptidic ketoheterocycles” (Bioorg Med Chem Lett, 2005)
